# Assay results: patent US6638974B1, “Ascorbyl esters for the treatment of cancer” (University of South Florida, priority 1999, dated 2003)
# Assays:
# IGF1-R [1] = test: IGF1-R expression by Western immunoblotting, PANC-1; type: cell-based, human; settings: 150 μM, 24 hours, vs untreated control
# Procedure: (§1) PANC-1 cells were cultured for 24 hours in MEM+10% FBS and treated with 150 μM Asc-S for 24 hours, Asc-S treated and untreated (control). PANC-1 cells were analyzed by Western immunoblotting as follows: Cell lysates of treated and non-treated PANC-1 cells were obtained. The lysates were sonicated, centrifuged and protein concentration was determined with Pierce BCA protein kit (Pierce Laboratories). A 20 μg of protein was loaded and resolved at 4% to 15% polyacrylamide gradient gel by sodium dodecyl sulfate-polyacrylamide gel electrophoresis (SDS-PAGE) and electroblotted onto a nitrocellulose membrane […]. The membrane was immunoblotted with mouse anti-human IGF1-R antibodies to cross-react the 85 kDa β-subunit of the IGF1-R (Pharmingen, San Diego, Calif.) followed by anti-mouse horseradish peroxidase conjugated secondary antibody (ECL, Amersham Corporation, Arlington Heights, Ill.). Antigen bound to nitrocellulose membrane was detected with the ECL system (Amersham Corporation, Arlington Heights, Ill.). P6 cells (3T3 fibroblast cells, transfected with a CVN plasmid constituitively expressing human IGF1-R) were used as the positive control.
# In additional experiments PANC-1 cells were cultured in MEM+10% FBS and treated with different concentrations of Asc-S (e.g. 50, 75, 100, 125, 150 and 200 μM) for 24 hours. […]
# IGF1-R [2] = test: IGF1-R expression by Western blotting, PC-1; type: cell-based, hamster; settings: 150 μM, 24 hours, vs untreated control
# Procedure: This inhibition was dose and time dependent. In fact the exposure of PANC-1 cells to different concentrations of Asc-S (e.g. 50, 75, 100, 125, 150, and 200 μM) for 24 hours in the same conditions, inhibited IGF1-R expression in a dose dependent fashion (FIG. 2A).
# The effect of Asc-S on the proliferation of PC-1 and PANC-1 pancreatic tumor cells was studied using MTT assay. The expression of IGF1-R was analyzed by Western blot analysis, using polyclonal IGF1-R antibody (Upstate Biotech). Apoptosis was assessed by in situ hybridization using TUNEL reaction. […] This was associated with significant decrease in IGF1-R expression and increased apoptotic rate as compared to the control. Statistical analysis on the MTT assay was done using Student's T-test.
# Ras (p21) = Ras (p21) expression by Western blot, PANC-1; type: cell-based, human; settings: 150 μM, 24 hours
# Procedure: as §1
# Effects of Asc-S on Ras expression in PANC-1 cells: The activation of the IGF1-R induces a cascade of phosphorylations including that of GDP to GTP with activation of the Ras pathway. […]
# T98G cells = test: Apoptosis by in situ TUNEL assay, T98G; type: cell-based, human; settings: 100 μM, 24 hours
# Procedure: Apoptosis by in situ TUNNEL assay: This experiment was designed to test the hypothesis that down regulation of IGF1-R facilitates apoptosis in T98G cells. […] In addition, to test whether Asc-S treatment induces apoptosis in normal cells, rat astrocyte cells in primary culture were treated with 100 μM Asc-S for 24 hours. […] The increased apoptosis in the Asc-S treated T98G cells is due to down regulation of IGF1-R.
# In FIG. 10, apoptosis was evaluated by in situ immunohistochemical detection and quantification at a single cell level.
# [3] = tested on: mouse glioma cells (G-26); test: Intracerebral G-26 glioma in C57BL/6 mice, survival; type: in vivo; settings: C57BL/6 mice with intracerebral G-26 gliomas, oral 250 mg/Kg daily; controls 27±2 days
# Procedure: In vivo administration of Asc-S (250 mg/Kg) on intracerebral gliomas in C57BL/6 mice: The C57BL/6 mice were implanted with mouse glioma cells (G-26) by stereotaxic intracerebral implantation. […] (FIGS. 11A and B).
# The body weight profiles of those mice during the experiments are shown in (FIG. 11B). The median survival observed in this study is statistically significant (P<0.05).
# In vivo administration of Asc-S (250 mg/Kg) on intracerebral gliomas in C57BL/6 mice. The C57BL/6 mice were implanted with mouse glioma cells (G-26) by stereotaxic intracerebral implantation.
# The body weight profiles of those mice during the experiments are shown in (FIG. 17B). The median survival observed in this study is statistically significant (P<0.05).
compound,measurement,setting,value
"CCCCCCCCCCCCCCCCCC(=O)OC[C@H](O)[C@H]1OC(=O)C(O)=C1O [Asc-S, Ascorbyl stearate]","IGF1-R expression, PANC-1 cells (Western blotting)",IGF1-R [1],significantly lower number of receptors
same,"IGF1-R expression, PC-1 cells (Western blotting)",IGF1-R [2],significantly lower number of receptors
same,"Ras (p21) expression, PANC-1",Ras (p21),significant inhibition
same,"apoptosis (in situ TUNEL), T98G cells",T98G cells,significant increase in apoptosis
same,median survival,[3],43 ± 2 days
